Entries after “also recorded” stand apart in the source; their conditions may differ.

The target of data set [1] is T1, mitochondrial pyruvate carrier (MPC) (Mus musculus, UniProt P63030+Q9D023).
T1 construct: host or cells: 4T1 murine breast cancer cells, rPFO-permeabilized
T1 sequence (P63030 1-109): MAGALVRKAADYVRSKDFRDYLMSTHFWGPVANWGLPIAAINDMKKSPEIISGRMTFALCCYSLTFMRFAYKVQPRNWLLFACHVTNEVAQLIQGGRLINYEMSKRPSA
T1 sequence (Q9D023 1-127): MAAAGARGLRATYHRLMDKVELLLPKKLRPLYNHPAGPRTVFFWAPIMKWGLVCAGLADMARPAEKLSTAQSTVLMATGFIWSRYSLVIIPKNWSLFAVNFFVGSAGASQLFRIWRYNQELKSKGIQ
The data set can be described thus: Seahorse XFe96 Pyr-driven respiration in rPFO-permeabilized 4T1 cells. It counts as cell-based, murine. As to conditions: read-out: IC50, inhibition of Pyr-driven respiration. The procedure: After validating the ability of rPFO to permeabilize 4T1 cells without damaging mitochondria, we sought to investigate the ability of candidate compounds to inhibit Pyr-driven respiration in these cells (Fig. 1, D–G). In this regard, 4T1 cells were seeded in Seahorse XFe96 well plates and were incubated to reach confluence (∼18–24 h) in growth media (+serum). Growth media were then aspirated, and cells were washed with MAS buffer to remove serum and endogenous metabolic substrates. Serum- and substrate-starved cells were then incubated for equilibration in MAS buffer in a non-CO2 incubator. Inhibitors, rPFO, and substrate milieus were prepared in MAS buffer to be injected in succession to allow for real-time observation of the effects of compound-treated cultures on oxygen consumption rates (OCRs) when compared with vehicle (dimethyl sulfoxide [DMSO])-treated cells. Equilibrated intact cells were allowed to establish basal respiratory rates, followed by the injection of candidate compounds C1 to C4 at varying dose-titrated concentrations, respectively, and acute decreases in OCR were observed (Fig. 1, D–G). Compound exposure was performed in intact cells to avoid influence of rPFO on acute cellular targets. Cells were then exposed to rPFO, followed by the carbonyl cyanide-p-trifluoromethoxyphenylhydrazone (FCCP)–stimulated Pyr substrate milieu, which consisted of Pyr, malate (Mal), and dichloroacetate (DCA) to fuel uninhibited Pyr respiratory flux and maximal respiration. Mal and DCA were included to allow for continuous TCA cycle function without acetyl CoA feedback–mediated inhibition (Mal) or Pyr dehydrogenase–regulated inhibition (DCA) of Pyr uptake. Here, we observed a dose-dependent inhibition of Pyr-driven respiration in cells treated with the candidate compounds, allowing for logarithmic dose–response curves to be generated, and 50% inhibitory concentrations (IC50) to be calculated (Fig. 1, D–G). Finally, complex I and […] were injected to halt respiration and end the assay. […] In this regard, the fluoro-aminocarboxycoumarin derivative C4 has been designated as the lead candidate for further investigation.
(§1) Permeabilized cell assays were performed using rPFO as described previously. 4T1 cells were seeded (20,000 cells/well) onto Seahorse XFe96 well plates and incubated overnight in growth media at 37 °C and 5% CO2 for adherence. On the day of the assay, growth media were aspirated and replaced with MAS buffer (70 mM sucrose, 220 mM mannitol, 10 mM potassium phosphate monobasic, 5 mM magnesium chloride, 2 mM Hepes, and 1 mM EGTA) after 3X rinse of growth media to remove serum and endogenous metabolic substrates, and incubated at 37 °C in a non-CO2 incubator. Respective inhibitor and substrate milieu's were prepared in MAS buffer for port injections A–D at 8X, 9X, 10X, and 11X the target cell concentrations to account for intrinsic dilution factor of in situ injections of each port. […] Final substrate concentrations for specific tests were as follows: (5 mM Pyr , 0.5 mM Mal, 2 mM DCA; 10 mM glutamate, 0.5 mM Mal, 2 mM DCA; 10 mM succinate, 2 μM rotenone; 20 mM methyl Pyr, 5 mM Pyr, 0.5 mM Mal, and 2 mM DCA). ATP rate assays and mitochondrial stress tests were performed according to the manufacturer's (Agilent) instructions.

The test system of data set [2] is glutamate-driven respiration in 4T1 cells. The data set can be described thus: Seahorse glutamate-driven respiration in permeabilized 4T1 cells. It counts as cell-based, murine. As to conditions: Glu/Mal, candidate compounds 1 μM.
From the text: (§2) Although our initial experiments and previous literature illustrate the ability of the candidate compounds to inhibit Pyr-driven respiration, we sought to investigate the ability of candidate compounds to inhibit respiration fueled by other metabolic substrates, glutamate and succinate (Fig. 2). Glutamate, similar to Pyr oxidation, results in NADH equivalents that fuel complex I-mediated respiration, and succinate metabolism offers FADH2 for electrons in complex II-driven respiratory processes. […] To further validate the mode of action of the candidate compounds, a series of similar Seahorse experiments were employed (Fig. 2, A–C). In these experiments, 4T1 cells were first permeabilized and were then offered metabolic substrates Pyr (Pyr/Mal; Fig. 2A), glutamate (Glu/Mal, Fig. 2B), or succinate (Fig. 2C), and the resulting OCR was observed. As described previously, Mal and DCA were included in the substrate milieu of glutamate respiration experiments. […] To validate that inhibition of Pyr respiration is due to mitochondrial Pyr uptake and not other Pyr-processing enzymes (i.e., Pyr dehydrogenase), a parallel experiment using methyl pyruvate (MePyr) was employed (Fig. 2, E and F). MePyr is permeable to the mitochondrial membranes, where in the matrix, mitochondrial esterase hydrolysis activity provides Pyr.
as §1

Data set [3] has as its system succinate-driven respiration in 4T1 cells. The data set can be described thus: Seahorse succinate-driven respiration in permeabilized 4T1 cells. It counts as cell-based, murine. The conditions noted are these: candidate compounds 1 μM.
From the text: as §2, §1

Data set [4] is described as follows: Intrinsic CL in human liver microsomes. It counts as in vitro ADME. For orientation: Liver microsomes are a subcellular fraction often used to study metabolism.
The target in data set [5] is T1, mitochondrial pyruvate carrier (MPC). The data set can be described thus: Pyr-driven respiration in permeabilized 67NR cells. It counts as cell-based, murine.
Data set [6] can be described thus: in vivo. As to conditions: BALB/c, mouse; for bioavailability / Vd / clearance: plasma; for half-life: in vivo.
Experimental: IV dosing allows for analysis under the assumption of total systemic absorption (Fig. S3A).
In a contract organization Medicilon, 35 male and 35 female BALB/c mice were randomized and put into two groups (n = 15) per sex for each route of administration (4 total groups). Extra mice were used for collection of blank plasma. […] Each time point utilized three mice per group, and each mouse had two blood draws. The blood samples were collected in K2EDTA tubes on ice, centrifuged at 6800g (6 min, 4 °C) to generate plasma samples. The plasma samples were stored below −70 °C until LC–MS/MS analysis. […] After data acquisition, noncompartmental analysis parameters were calculated by Pheonix WinNonlin 7.0.

In the case of `CN(Cc1ccc(C(F)(F)F)cc1)c1ccc2cc(C(=O)O)c(=O)oc2c1.NC(CO)(CO)CO` [C5, 1,3-dihydroxy-2-(hydroxymethyl)propan-2-aminium 7-(methyl(4-(trifluoromethyl)benzyl)amino)-2-oxo-2H-chromene-3-carboxylate], the IC50 in data set [1] is 14.4 ± 0.5 nM. The “effect on glutamate-driven respiration” value in data set [2] is “does not alter; also recorded: did not alter”. For the same compound, the “effect on succinate-driven respiration” value in data set [3] is recorded as “does not alter; also recorded: did not alter”. Also, the “increase in Clint compared with C3” value in data set [4] (human liver microsomes) was “two-fold”. Besides, the half-life in data set [4] (human, liver microsomes, exceeding the experimental endpoints) was over 2 h; in data set [6] (female, iv, 1 mg/kg) it was 3.15 h; in data set [6] (female, po, 5 mg/kg), 4.41 h; in data set [6] (male, iv, 1 mg/kg), 3.65 h; in data set [6] (male, po, 5 mg/kg), 4.04 h. The “effect on pyruvate driven respiration” value in data set [5] is on record as “inhibits”. The bioavailability in data set [6] (both, po, 5 mg/kg) is about 100%; in data set [6] (female, po, 5 mg/kg) it was 125%; in data set [6] (male, po, 5 mg/kg), 124%. The Vd in data set [6] (female, iv, 1 mg/kg) is 6.92 L/kg; in data set [6] (male, iv, 1 mg/kg), 10.2 L/kg. Also, the clearance in data set [6] (female, iv, 1 mg/kg) worked out at 26.6 mL/min/kg; in data set [6] (male, iv, 1 mg/kg) it was 34.3 mL/min/kg.

By half-life is commonly meant how long it takes for the measured level to halve. High values mean slow decline, low ones rapid decline. Usually Vd stands for a proportionality between amount in the body and measured concentration, not a real space. A low value points to confinement near the circulation. The term clearance denotes the rate of elimination divided by the concentration.

The values above are taken from paper PMC12355554, “Development of novel mitochondrial pyruvate carrier inhibitors for breast cancer treatment” (The Journal of Biological Chemistry, 2025).
